Laboratory results: patent publication US9199922B2, “Dihalophenoxyphenylamidines and use thereof as fungicides” (BAYER INTELLECTUAL PROPERTY GMBH, priority 2007, dated 2015)
Read-outs that look alike come from different tables or passages of the source.

Assay: logP determination (acidic / neutral)
Assay type: physicochemical
[1] = pH 2.3, read-out: log P (pH 2.3)

SMILES | logP acidic | logP neutral (neutral) | logP (neutral, read-out: logP neutral) | logP [1] | log P (pH 2.3) (pH 2.3)
Cc1cc(Oc2cc(F)cc(Br)c2)c(C)cc1N=CN1CC(C)OC(C)C1 (stereo not shown) [Compound 29] | 2.59 | 5.8 | – | – | –
Cc1cc(Oc2cc(F)cc(I)c2)c(C)cc1N=CN1CCCC1 [Compound 22] | 2.46 | 6.6 | – | – | –
CCN(C)C=Nc1cc(C)c(Oc2ccc(Cl)c(Cl)c2)cc1C [Compound 30, N-Ethyl-N-methyl-N′-[4-(3,4-dichlorophenoxy)-2,5-dimethylphenyl]formamidine] | – | – | 6.07 | 2.48 | –
Cc1cc(Oc2ccc(Br)c(F)c2)c(C)cc1N=CN1CCCCC1 [Compound 31] | 2.39 | – | – | – | –
Cc1cc(Oc2ccc(Br)c(Br)c2)c(C)cc1N=CN1CCCCC1 [Compound 39] | 2.48 | 6.93 | – | – | –
CCN(C)C=Nc1cc(C)c(Oc2cc(F)cc(Cl)c2)cc1C [Compound 8] | 2.21 | 5.6 | – | – | –
CCCN(C)C=Nc1cc(C)c(Oc2cc(F)cc(Cl)c2)cc1C [Compound 11] | 2.39 | 6.1 | – | – | –
Cc1cc(Oc2cc(F)cc(F)c2)c(C)cc1N=CN1CCCCC1 [Compound 35] | 2.03 | 5.79 | – | – | –
CCN(C)C=Nc1cc(C)c(Oc2ccc(Br)c(F)c2)cc1C [Compound 32] | 2.2 | – | – | – | –
Cc1cc(Oc2ccc(Cl)c(Br)c2)c(C)cc1N=CN1CCCCC1 [Compound 16] | 2.66 | 6.9 | – | – | –
CCCN(C)C=Nc1cc(C)c(Oc2cc(F)cc(I)c2)cc1C [Compound 20] | 2.61 | 6.6 | – | – | –
Cc1cc(Oc2cc(F)cc(Br)c2)c(C)cc1N=CN1CCCCC1 [Compound 12] | 2.55 | 6.5 | – | – | –
CCN(C)C=Nc1cc(C)c(Oc2ccc(F)c(F)c2)cc1C [Compound 2] | 2.37 | 6.2 | – | – | –
C=CCN(C)C=Nc1cc(C)c(Oc2ccc(Br)c(Br)c2)cc1C [Compound 37] | 2.24 | 6.3 | – | – | –
CCN(C)C=Nc1cc(C)c(Oc2ccc(F)c(Br)c2)cc1C [Compound 23] | 2.29 | 5.7 | – | – | –
CCCN(C)C=Nc1cc(C)c(Oc2ccc(Cl)c(Br)c2)cc1C [Compound 17] | 2.64 | 6.6 | – | – | –
CCCN(C)C=Nc1cc(C)c(Oc2cc(F)cc(F)c2)cc1C [Compound 33] | 2.04 | 5.54 | – | – | –
Cc1cc(Oc2cc(F)cc(Br)c2)c(C)cc1N=CN(C)CC1CC1 [Compound 40] | 2.25 | – | – | – | –
Cc1cc(Oc2cc(F)cc(Cl)c2)c(C)cc1N=CN1CCCCC1 [Compound 9] | 2.42 | 6.3 | – | – | –
CCN(C)C=Nc1cc(C)c(Oc2ccc(Cl)c(Br)c2)cc1C [Compound 15] | 2.23 | 6.1 | – | – | –

SMILES | logP acidic | logP neutral (neutral) | logP (neutral, read-out: logP neutral) | logP [1] | log P (pH 2.3) (pH 2.3)
CCN(C)C=Nc1cc(C)c(Oc2cc(F)cc(I)c2)cc1C [Compound 19] | 2.4 | – | – | – | –
CCCN(C)C=Nc1cc(C)c(Oc2cc(F)cc(Br)c2)cc1C [Compound 14] | 2.37 | 7.4 | – | – | –
CCN(C)C=Nc1cc(C)c(Oc2cc(Cl)cc(Br)c2)cc1C [Compound 6] | 2.56 | 6.4 | – | – | –
Cc1cc(Oc2cc(Br)cc(Br)c2)c(C)cc1N=CN(C)C(C)C [Compound 5] | 2.62 | 6.4 | – | – | –
CCCN(C)C=Nc1cc(C)c(Oc2ccc(Br)c(Br)c2)cc1C [Compound 38] | 2.45 | 6.62 | – | – | –
Cc1cc(Oc2cc(F)cc(I)c2)c(C)cc1N=CN1CCCCC1 [Compound 21] | 2.6 | 6.8 | – | – | –
Cc1cc(Oc2cc(Cl)cc(Br)c2)c(C)cc1N=CN(C)C(C)C [Compound 7] | 2.7 | 6.8 | – | – | –
CCN(C)C=Nc1cc(C)c(Oc2cc(F)cc(Br)c2)cc1C [Compound 3] | 2.29 | 5.8 | – | – | –
CCN(C)C=Nc1cc(C)c(Oc2ccc(Br)c(I)c2)cc1C [Compound 27] | 2.67 | 6.1 | – | – | –
CCN(C)C=Nc1cc(C)c(Oc2ccc(Cl)c(I)c2)cc1C [Compound 25] | 2.29 | – | – | – | –
Cc1cc([N+](=O)[O-])c(C)cc1Oc1ccc(Cl)c(Cl)c1 [4-(3,4-Dichlorophenoxy)-2,5-dimethylnitrobenzene] | – | – | – | – | 5.19
CCN(C)C=Nc1cc(C)c(Oc2ccc3c(c2)CCCC3)cc1C [Compound 13] | 2.37 | 5.7 | – | – | –
Cc1cc(Oc2ccc(Cl)c(I)c2)c(C)cc1N=CN1CCCCC1 [Compound 26] | 2.52 | – | – | – | –
Cc1cc(Oc2ccc(Cl)c(Cl)c2)c(C)cc1N [4-(3,4-Dichlorophenoxy)-2,5-dimethylaniline] | – | – | – | 3.51 | –
Cc1cc(Oc2ccc(Cl)c(I)c2)c(C)cc1N=CN(C)C(C)C [Compound 24] | 2.4 | 6.2 | – | – | –
Cc1cc(Oc2cc(F)cc(Cl)c2)c(C)cc1N=CN1CCCC1 [Compound 10] | 2.26 | 5.6 | – | – | –
Cc1cc(Oc2ccc(Cl)c(Br)c2)c(C)cc1N=CN1CCCC1 [Compound 18] | 2.56 | 6.6 | – | – | –
CCN(C)C=Nc1cc(C)c(Oc2cc(Br)cc(Br)c2)cc1C [Compound 4] | 2.5 | 6 | – | – | –
CCCN(C)C=Nc1cc(C)c(Oc2cc(F)cc(Br)c2)cc1C [Compound 28] | 2.91 | 6.9 | – | – | –
